In patent US9102899B2, “Organic compounds” (Givaudan SA, priority 2004, dated 2015):

Columns and labels:
[1] = Odour threshold by gas chromatograph with sniff port, panel of trained individuals; settings: GC sniff port; absolute amount of compound delivered at the sniff port; same panel, couples evaluated on the same day
Experimental: According to standard procedures known to the person skilled in the art, threshold values for volatile perfumery compounds were determined on a gas chromatograph equipped with a sniff port by a panel of trained individuals. The last concentration smelled by each individual was recorded as the individual threshold value expressed in ng (absolute amount of compound delivered at the sniff port). All compounds have been evaluated by the same panel. The couples (saturated and unsaturated compound) were evaluated on the same day.

Row | SMILES | Odour threshold [1] [ng] | melting point [°C]
1 | CCCCCCC(C#N)c1ccccc1 (centres unmarked) [Comparison Example 2A, reference compound] | 15 | –
2 | CCCCCC=C(C#N)c1ccccc1 (stereo in doubt) [Example 2, (2E)-2-Phenyl-oct-2-ene nitrile] | 2 | –
3 | CC(C)=C/C=C(/C#N)c1ccccc1 [Example 6, (2E)-5-Methyl-2-phenyl-hexa-2,4-diene nitrile] | – | 66 to 67
4 | CCC(C)=C(C#N)c1ccccc1 (racemic) [Example 3, 3-Methyl-2-phenyl-pent-2-ene nitrile] | 3 | –
5 | CCC(C)C(C#N)c1ccccc1 (centres unmarked) [Comparison Example 3A, reference compound] | 26 | –
